Seven compounds from patent US11840523B2, “IRE1α inhibitors and uses thereof” (The Regents of the University of California, priority 2020, dated 2023) can be followed below.

In one experiment the target is dpIRE1α* (Homo sapiens (Human), UniProt O75460). Description: In vitro Kdimer assay (XBP1-mini substrate cleavage) with dpIRE1α*. It is filed as biochemical. The conditions noted are these: FIG. 4; for fold lowering of Kdimer of dpIRE1α* when kinase domain complexed to ligand: versus apo dpIRE1α*, FIG. 1D. An excerpt: (§1) In order to better understand how to achieve an optimal intermediate RNase activation state through engagement of IRE1α's kinase domain, we first established a quantitative in vitro framework for characterizing how ATP-binding site occupancy influences RNase activity. […] This dimeric state-commonly referred to as the “back-to-back” dimer—is characterized by an extensive interface between the kinase and RNase domains of each IRE1α protomer; this dimeric state can be promoted through mass action as IRE1α concentration is raised. […] Furthermore, ligands that occupy the ATP-binding site of the kinase domain can also stimulate IRE1α's RNase activity by promoting dimer formation. We measured the ability of a purified, recombinant kinase/RNase domain construct of IRE1α-called IRE1α* to cleave a FRET-quenched XBP1 RNA mini-substrate as a function of IRE1α* concentration, in order to provide a quantitative metric of IRE1α's dimer affinity (Kdimer) (FIG. 1). […]
dpIRE1α*, sequence (O75460 547-977): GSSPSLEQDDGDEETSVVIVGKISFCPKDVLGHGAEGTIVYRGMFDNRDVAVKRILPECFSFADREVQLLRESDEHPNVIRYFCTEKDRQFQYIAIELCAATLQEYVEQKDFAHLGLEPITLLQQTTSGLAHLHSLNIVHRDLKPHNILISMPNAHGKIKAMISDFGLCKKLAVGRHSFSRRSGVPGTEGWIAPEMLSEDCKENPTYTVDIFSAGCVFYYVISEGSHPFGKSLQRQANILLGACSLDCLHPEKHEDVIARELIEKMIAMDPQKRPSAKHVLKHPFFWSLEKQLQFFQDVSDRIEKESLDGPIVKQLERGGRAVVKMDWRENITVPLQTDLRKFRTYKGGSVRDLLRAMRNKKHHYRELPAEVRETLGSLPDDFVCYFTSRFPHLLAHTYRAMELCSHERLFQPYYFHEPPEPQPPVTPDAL
IRE1α* or dPIRE1α* was titrated from either 2 μM or 4 μM in two-fold serial dilutions in assay buffer (20 mM Tris, 50 mM sodium chloride, 1 mM MgCl2, 2 mM DTT, 0.05% Triton X-100 (v/v), pH 7.5) and incubated with 50 μM inhibitor for 30 minutes at room temperature. […] Fluorescence was detected on a Perkin Elmer Envision Microplate Reader at excitation and emission wavelengths of 650 nm and 665 nm. Reaction process was monitored real time in 10-second intervals for at least 30 minutes. Initial rates of XBP1-cleavage were determined for each respective IRE1α* of dpIRE1α* concentration. Specific activity was then determined by dividing rate (RFU/s) by the respective IRE1α* of dpIRE1α* used (RFU/s*[IRE1α]). Kdimer values were determined by fitting these values using the non-linear regression ‘one-site total’ binding parameter in GraphPad Prism analysis software.

For experiment [1], the target named is T1, IRE1α (Homo sapiens (Human), UniProt O75460). Description: In vitro Kdimer assay (XBP1-mini substrate cleavage) with IRE1α*. The class given is biochemical. The conditions noted are these: ligand-bound IRE1α*; FIG. 1E, FIG. 5.
T1 sequence (O75460 547-977): as above
Text: as §1
IRE1α* or dPIRE1α* was titrated from either 2 μM or 4 μM in two-fold serial dilutions in assay buffer (20 mM Tris, 50 mM sodium chloride, 1 mM MgCl2, 2 mM DTT, 0.05% Triton X-100 (v/v), pH 7.5) and incubated with 50 μM inhibitor for 30 minutes at room temperature. […] Fluorescence was detected on a Perkin Elmer Envision Microplate Reader at excitation and emission wavelengths of 650 nm and 665 nm. […]

In experiment [2] the test system is XBP1 splicing in INS-1 cells. Description: XBP1 splicing in ER-stressed INS-1 cells. It is filed as cell-based, rat. The note with it: INS-1 cells treated with brefeldin A or thapsigargin; FIG. 6. The method, then:
INS-1s (rat insulinoma beta cells) were grown in RPMI, 10% FBS buffer (v/v), 1 mM sodium pyruvate, 10 mM HEPES, 2 mM glutamine and 50 μM β-mercaptoethanol on Poly-D-Lysine coated tissue culture flasks. IRE1α (murine) was cloned into a pcDNA5/FRT/TO. INS-1 FRT/TO cells were grown following the protocol above. INS-1 FRT/TO cells were transfected with 2 μg IRE1α-pcDNA5/FRT/TO and 2 μg pOG44 using Lipofectamine 2000 (Thermo Fisher). Cell media was exchanged the next day and cells were allowed grow for another day before passaging. Selection was performed using 50 μg/mL Hygromycin-B (Thermo Fisher) over about two weeks until all un-transfected cells have died and colonies have appeared in transfected cells. Stably integrated cells were maintained in RPMI, 10% FBS buffer (v/v), 1 mM sodium pyruvate, 10 mM HEPES, 2 mM glutamine and 50 μM β-mercaptoethanol, […] Hygromycin-B. HEK293 cells were grown in DMEM High Glucose media (Gibco) supplemented with 10% FBS. […]
INS-1 or isogenic IRE1α-overexpressing INS-1 cells were plated onto Poly-D-Lysine coated tissue culture plate and grown for 48 hrs. […] PCR fragments were then digested by PstI, resolved on 3% agarose gels, stained with EtBr and quantified by densitometry using ImageJ (NIH). For standard mRNA detection, generally […] total RNA was reverse transcribed using the QuantiTect Reverse Transcription Kit (QIAGEN). […]

Experiment [3] has as its target T1, IRE1α. In words: In vitro kinase activity assay (IC50 IRE1α kinase inhibition). It is filed as biochemical. On the procedure:
A construct containing the cytosolic kinase and RNase domains of human IRE1α (residues 547-977, IRE1α*) was expressed in SF9 insect cells by using the Bac-to-Bac baculovirus expression system (Invitrogen) with a His6 tag at the N-terminus and purified with a nickel-nitriloacetic acid (Qiagen) column. To generate dP-IRE1α*, we removed basal phosphorylation sites by incubating IRE1α* with λ-PPase (New England Biolabs) at a molar ratio of 5:1 (IRE1α*: X-PPase) in 50 mM HEPES pH 7.5, 100 mM NaCl, 1 mM MnCl2, 2 mM dithiothreitol (DTT) and 0.01% Brij 35 detergent (v/v) overnight at 4° C. Dephosphorylation was verified through western blotting using a universal phospho-protein detection agent (biotin-pIMAGO (Tymora Analytical Operations, Cat. No.: FL800) and imaged using a streptavidin-linked fluorophore.
In Vitro Kinase Activity Assay
Inhibitors (initial concentration of 10 or 60 μM, three-fold serial dilutions) were incubated with IRE1α* in cleavage buffer (20 mM HEPES, 0.05% Triton X-100 (v/v), 50 mM KCl, 1 mM MgCl2, 1 mM DTT, pH 7.5) for 30 min, followed by incubation with 10 μCi [γ^32P] ATP(3,000 Ci mmol^−1, PerkinElmer) at 23° C. for 3 hours. Samples were then spotted onto glass fiber paper (Easytab-C Glass Fiber Filter Paper, Perkin Elmer) and washed in twice with 0.5% phosphoric acid and autoradiographed using a GE Typhoon FLA 9000 Imager. Blots were quantitated using ImageQuant software. The percent inhibition was quantified by setting the background (no kinase well) as 0 and standardizing to IRE1α* without compound treatment (IRE1α*+DMSO). Dose-response curves were fit using “one-site fit logIC50” parameter using GraphPad Prism analysis software.
Compound Characterization (IC50 IRE1α Kinase Inhibition)

Consider `O=C(Nc1c[nH]nc1-c1nc2ccc(CN3CCOCC3)cc2[nH]1)NC1CC1` [AT9283], for which the “fold lowering of Kdimer of dpIRE1α* when kinase domain complexed to ligand” value on dpIRE1α* is given as “over 80 fold”.
With `NC(=O)Nc1cc(-c2cccc(F)c2)sc1C(=O)N[C@H]1CCCNC1` [AZD7762], on IRE1α [1], the “formation of RNase active dimers of IRE1α*” value was “promotes the formation of the RNase active dimer”. In addition, the “formation of the RNase active dimer of dpIRE1α*” value on dpIRE1α* (dpIRE1α*-ligand complex) is given as “promotes the formation of the RNase active dimer”. The “fold lowering of Kdimer of dpIRE1α* when kinase domain complexed to ligand” value on dpIRE1α* was “over 80 fold”.
As for `Cc1ccc2c(NS(=O)(=O)c3ccccc3Cl)cccc2c1Oc1ncccc1-c1ccnc(N[C@H]2CCCNC2)n1` [KIRA8], at IRE1α [1], the “formation of RNase active dimers of IRE1α*” value is “unable to form RNase active dimers at any concentration tested”. Also, the XBP1 splicing result in experiment [2] is on record as “completely suppresses XBP1 splicing”.
Usually IC50 stands for the concentration that gives 50% inhibition. Consider `CCc1cc(-c2ccc(NS(=O)(=O)c3ccccc3Cl)nc2OC)cc2cnc(N[C@H]3CC[C@H](N)CC3)nc12` [LBC-0000405], for which inhibition on IRE1α [3] was half-maximal at 5.1 nM (IC50).
On the same count and under the same terms, in the case of `CCc1cc(-c2ccc(NS(=O)(=O)CCC(F)(F)F)nc2OC)cc2cnc(N[C@H]3CC[C@H](N)CC3)nc12` [LBC-0000406, N-(5-(2-(((1r,4r)-4-aminocyclohexyl)amino)-8-ethylquinazolin-6-yl)-6-methoxypyridin-2-yl)-3,3,3-trifluoropropane-1-sulfonamide] it was 7.4 nM; in that of `CCc1cc(-c2ccc(NS(=O)(=O)CC(F)(F)F)nc2OC)cc2cnc(N[C@H]3CC[C@H](N)CC3)nc12` [LBC-0000407, N-(5-(2-(((1r,4r)-4-aminocyclohexyl)amino)-8-ethylquinazolin-6-yl)-6-methoxypyridin-2-yl)-2,2,2-trifluoroethane-1-sulfonamide], 7.5 nM; in that of `CCc1cc(-c2ccc(NS(=O)(=O)C3CC3)nc2OC)cc2cnc(N[C@H]3CC[C@H](N)CC3)nc12` [LBC-0000408, N-(5-(2-(((1r,4r)-4-aminocyclohexyl)amino)-8-ethylquinazolin-6-yl)-6-methoxypyridin-2-yl) cyclopropane sulfonamide], 5.1 nM.
